# Read-outs that look alike come from different tables or passages of the source.
# What was measured:
# [1] = official classification: non-sensitizer, irritant, or sensitizing Extreme/Strong/Moderate/Weak; cited from earlier work
# [2] = system: genes specific for sensitization (BRAK, CTSS, DAPK2, FABP4, HSP27, IL18, HSP90, IL1R2, TPSAB1, CXCR1, DEFB1, DHFR, EHF, IVL, KRT4, MELANA, NGAL, PDZK1IP1, PI3 …); assay: Expression of the other (non-ARE) sensitization-specific genes in EPISKIN reconstructed skin (quantitative RT-PCR); assay type: cell-based, human; conditions: for BRAK expression / CTSS expression / CXCR1 expression / DAPK2 expression / DEFB1 expression / DHFR expression / EHF expression / FABP4 expression / HSP27 expression / HSP90 expression / IL18 expression / IVL expression / KRT4 expression / MELANA expression / NGAL expression / P13 expression / PDZK1iP1 expression / SERPINB3 expression: compared to the control;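 for CTSS NUMBER OF GENES grade: grade scored against expression in the control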;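 for CXCR1 NUMBER OF GENES grade: grade scored against expression in the control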;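 for DAPK2 NUMBER OF GENES grade: grade scored against expression in the control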
# [3] = system: ARE gene family (AKR1B10, AKR1C1, AKR1C2, CYP1B1, FTH1P, FTL, G6PD, GCLM, NQO2, SLC7A11, TXNRD1, UGT1A1, UGT1A9, YWHAZ, CD36, CYP1A1, GCLC, HMOX1, NQO1, PSME2 …); conditions: human, 6 h
structure (smiles),measurement,setting,value
N#CCCC(Br)(C#N)CBr (centres unmarked) [2-Bromo-2-(bromomethyl)glutaronitrile],Class,[1],S
O=CCCCC=O [Glutaraldehyde],Class,[1],S
"CC(O)C(=O)O (centres unmarked) [Lactic acid (cys pos), Lactic acid]",BRAK NUMBER OF GENES grade,[2]; 1%,"0 (if this expression is lower, the grade is 0)"
same,CTSS NUMBER OF GENES grade,[2]; 1%,"0 (if this expression is lower, the grade is 0)"
same,CXCR1 NUMBER OF GENES grade,[2]; 1%,"0 (if this expression is lower, the grade is 0)"
same,DAPK2 NUMBER OF GENES grade,[2]; 1%,"0 (if this expression is lower, the grade is 0)"
same,DEFB1 NUMBER OF GENES grade,[2]; 1%,"0 (if this expression is lower, the grade is 0)"
same,DHFR NUMBER OF GENES grade,[2]; 1%,"0 (if this expression is lower, the grade is 0)"
same,EHF NUMBER OF GENES grade,[2]; 1%,"0 (if this expression is lower, the grade is 0)"
same,FABP4 NUMBER OF GENES grade,[2]; 1%,"0 (if this expression is lower, the grade is 0)"
same,HSP27 NUMBER OF GENES grade,[2]; 1%,"0 (if this expression is lower, the grade is 0)"
same,HSP90 NUMBER OF GENES grade,[2]; 1%,"0 (if this expression is lower, the grade is 0)"
same,IL18 NUMBER OF GENES grade,[2]; 1%,"0 (if this expression is lower, the grade is 0)"
same,IVL NUMBER OF GENES grade,[2]; 1%,"0 (if this expression is lower, the grade is 0)"
same,KRT4 NUMBER OF GENES grade,[2]; 1%,"0 (if this expression is lower, the grade is 0)"
same,MELANA NUMBER OF GENES grade,[2]; 1%,"0 (if this expression is lower, the grade is 0)"
same,NGAL NUMBER OF GENES grade,[2]; 1%,"0 (if this expression is lower, the grade is 0)"
same,P13 NUMBER OF GENES grade,[2]; 1%,"0 (if this expression is lower, the grade is 0)"
same,PDZK1iP1 NUMBER OF GENES grade,[2]; 1%,"0 (if this expression is lower, the grade is 0)"
same,SERPINB3 NUMBER OF GENES grade,[2]; 1%,"0 (if this expression is lower, the grade is 0)"
same,TOTAL SENS (number of genes),[2]; 1%,0
same,BRAK expression,[2]; 1%,0.8
same,CTSS expression,[2]; 1%,1.0
same,CXCR1 expression,[2]; 1%,0.7
same,DAPK2 expression,[2]; 1%,1.2
same,DEFB1 expression,[2]; 1%,0.9
same,DHFR expression,[2]; 1%,0.9
same,EHF expression,[2]; 1%,0.9
same,FABP4 expression,[2]; 1%,0.7
same,HSP27 expression,[2]; 1%,1.0
same,HSP90 expression,[2]; 1%,1.0
same,IL18 expression,[2]; 1%,0.9
same,IVL expression,[2]; 1%,1.0
same,KRT4 expression,[2]; 1%,0.9
same,MELANA expression,[2]; 1%,0.7
same,NGAL expression,[2]; 1%,0.9
same,P13 expression,[2]; 1%,0.8
same,PDZK1iP1 expression,[2]; 1%,1.0
same,SERPINB3 expression,[2]; 1%,0.9
same,BRAK NUMBER OF GENES grade,[2]; 10%,"0 (if this expression is lower, the grade is 0)"
same,CTSS NUMBER OF GENES grade,[2]; 10%,"0 (if this expression is lower, the grade is 0)"
same,CXCR1 NUMBER OF GENES grade,[2]; 10%,"0 (if this expression is lower, the grade is 0)"
same,DAPK2 NUMBER OF GENES grade,[2]; 10%,"0 (if this expression is lower, the grade is 0)"
same,DEFB1 NUMBER OF GENES grade,[2]; 10%,"0 (if this expression is lower, the grade is 0)"
same,DHFR NUMBER OF GENES grade,[2]; 10%,"0 (if this expression is lower, the grade is 0)"
same,EHF NUMBER OF GENES grade,[2]; 10%,"0 (if this expression is lower, the grade is 0)"
same,FABP4 NUMBER OF GENES grade,[2]; 10%,"0 (if this expression is lower, the grade is 0)"
same,HSP27 NUMBER OF GENES grade,[2]; 10%,"0 (if this expression is lower, the grade is 0)"
same,HSP90 NUMBER OF GENES grade,[2]; 10%,"0 (if this expression is lower, the grade is 0)"
same,IL18 NUMBER OF GENES grade,[2]; 10%,"0 (if this expression is lower, the grade is 0)"
same,IVL NUMBER OF GENES grade,[2]; 10%,"0 (if this expression is lower, the grade is 0)"
same,KRT4 NUMBER OF GENES grade,[2]; 10%,"0 (if this expression is lower, the grade is 0)"
same,MELANA NUMBER OF GENES grade,[2]; 10%,"0 (if this expression is lower, the grade is 0)"
same,NGAL NUMBER OF GENES grade,[2]; 10%,"0 (if this expression is lower, the grade is 0)"
same,P13 NUMBER OF GENES grade,[2]; 10%,"0 (if this expression is lower, the grade is 0)"
same,PDZK1iP1 NUMBER OF GENES grade,[2]; 10%,"0 (if this expression is lower, the grade is 0)"
same,SERPINB3 NUMBER OF GENES grade,[2]; 10%,"0 (if this expression is lower, the grade is 0)"
same,TOTAL SENS (number of genes),[2]; 10%,0
same,BRAK expression,[2]; 10%,1.0
same,CTSS expression,[2]; 10%,1.1
same,CXCR1 expression,[2]; 10%,0.7
same,DAPK2 expression,[2]; 10%,1.1
same,DEFB1 expression,[2]; 10%,1.0
same,DHFR expression,[2]; 10%,1.0
same,EHF expression,[2]; 10%,0.9
same,FABP4 expression,[2]; 10%,0.9
same,HSP27 expression,[2]; 10%,0.9
same,HSP90 expression,[2]; 10%,0.9
same,IL18 expression,[2]; 10%,1.0
same,IVL expression,[2]; 10%,0.9
same,KRT4 expression,[2]; 10%,0.8
same,MELANA expression,[2]; 10%,0.8
same,NGAL expression,[2]; 10%,1.0
same,P13 expression,[2]; 10%,0.8
same,PDZK1iP1 expression,[2]; 10%,1.0
same,SERPINB3 expression,[2]; 10%,1.1
same,BRAK NUMBER OF GENES grade,[2]; 50%,"0 (if this expression is lower, the grade is 0)"
same,CTSS NUMBER OF GENES grade,[2]; 50%,"1 (If the expression is greater than 1.3 compared to the control, a grade of 11s given)"
same,CXCR1 NUMBER OF GENES grade,[2]; 50%,"0 (if this expression is lower, the grade is 0)"
same,DAPK2 NUMBER OF GENES grade,[2]; 50%,"0 (if this expression is lower, the grade is 0)"
same,DEFB1 NUMBER OF GENES grade,[2]; 50%,"0 (if this expression is lower, the grade is 0)"
same,DHFR NUMBER OF GENES grade,[2]; 50%,"0 (if this expression is lower, the grade is 0)"
same,EHF NUMBER OF GENES grade,[2]; 50%,"0 (if this expression is lower, the grade is 0)"
same,FABP4 NUMBER OF GENES grade,[2]; 50%,"0 (if this expression is lower, the grade is 0)"
same,HSP27 NUMBER OF GENES grade,[2]; 50%,"0 (if this expression is lower, the grade is 0)"
same,HSP90 NUMBER OF GENES grade,[2]; 50%,"0 (if this expression is lower, the grade is 0)"
same,IL18 NUMBER OF GENES grade,[2]; 50%,"0 (if this expression is lower, the grade is 0)"
same,IVL NUMBER OF GENES grade,[2]; 50%,"0 (if this expression is lower, the grade is 0)"
same,KRT4 NUMBER OF GENES grade,[2]; 50%,"0 (if this expression is lower, the grade is 0)"
same,MELANA NUMBER OF GENES grade,[2]; 50%,"0 (if this expression is lower, the grade is 0)"
same,NGAL NUMBER OF GENES grade,[2]; 50%,"0 (if this expression is lower, the grade is 0)"
same,P13 NUMBER OF GENES grade,[2]; 50%,"0 (if this expression is lower, the grade is 0)"
same,PDZK1iP1 NUMBER OF GENES grade,[2]; 50%,"0 (if this expression is lower, the grade is 0)"
same,SERPINB3 NUMBER OF GENES grade,[2]; 50%,"0 (if this expression is lower, the grade is 0)"
same,TOTAL SENS (number of genes),[2]; 50%,1
same,BRAK expression,[2]; 50%,0.7
same,CTSS expression,[2]; 50%,1.4
same,CXCR1 expression,[2]; 50%,0.8
same,DAPK2 expression,[2]; 50%,1.1
same,DEFB1 expression,[2]; 50%,1.1
same,DHFR expression,[2]; 50%,0.9
same,EHF expression,[2]; 50%,0.9
same,FABP4 expression,[2]; 50%,0.8
same,HSP27 expression,[2]; 50%,0.8
same,HSP90 expression,[2]; 50%,0.9
same,IL18 expression,[2]; 50%,0.8
same,IVL expression,[2]; 50%,0.9
same,KRT4 expression,[2]; 50%,0.8
same,MELANA expression,[2]; 50%,0.6
same,NGAL expression,[2]; 50%,1.0
same,P13 expression,[2]; 50%,0.9
same,PDZK1iP1 expression,[2]; 50%,1.0
same,SERPINB3 expression,[2]; 50%,1.2
same,CD36 expression,[3]; 1 %,1.1
same,S100A8 expression,[3]; 1 %,0.8
same,CD36 expression,[3]; 10 %,1.1
same,S100A8 expression,[3]; 10 %,1.0
same,CD36 expression,[3]; 50 %,0.9
same,S100A8 expression,[3]; 50 %,1.1
